The values that follow are results of earlier work, collected in US20220023398A1, “COMPOSITIONS AND METHODS FOR TREATING THYROID DISEASE” (Script Essentials, LLC, priority 2015, published 2022).

For series [1] the following is noted: after oral supplementation.
For series [2] the following is noted: supplementation, even in selenium sufficient patients.
[3] abbreviates: participants with low T3, normal T4.

As for `O=S(=O)([O-])[O-].[Zn+2]` [zinc sulfate], in series [1] (setting [3]), the TSH entry was “normalized” and the “reverse T3 (rT3)” value is given as “decreased”. For the same compound, the “levels of T3” value in series [1] (participants with low T3, normal T4, mild to moderate zinc deficiency) is “normalized”.

Regarding `[Se]` [selenium], the “thyroid peroxidase (TPO) antibody levels in the blood” value in series [2] is “reduced”.
